According to patent US8846719B2, “Isoxazolo-pyridine derivatives” (Roche Palo Alto LLC, priority 2007, dated 2014):
Where two headings read alike, the source gives them in different places.

Target: human GABA A receptor α5β3γ2 (Homo sapiens (Human), UniProt P18507+P31644)
Assay: [3H]flumazenil competition binding assay, human GABA A α5β3γ2 receptors expressed in HEK293 cells
Experimental: The affinity of compounds at GABA A receptor subtypes was measured by competition for [3H]flumazenil (85 Ci/mmol; Roche) binding to HEK293 cells expressing rat (stably transfected) or human (transiently transfected) receptors of composition α1β3γ2, α2β3γ2, α3β3γ2 and α5β3γ2.
Cell pellets were suspended in Krebs-tris buffer (4.8 mM KCl, 1.2 mM CaCl2, 1.2 mM MgCl2, 120 mM NaCl, 15 mM Tris; pH 7.5; binding assay buffer), homogenized by polytron for ca. 20 sec on ice and centrifuged for 60 min at 4° C. (50000 g; Sorvall, rotor: SM24=20000 rpm). The cell pellets were resuspended in Krebs-tris buffer and homogenized by polytron for ca. 15 sec on ice. Protein was measured (Bradford method, Bio-Rad) and aliquots of 1 mL were prepared and stored at −80° C.
Assays were incubated to equilibrium for 1 hour at 4° C. and harvested onto GF/C uni-filters (Packard) by filtration using a Packard harvester and washing with ice-cold wash buffer (50 mM Tris; pH 7.5). After drying, filter-retained radioactivity was detected by liquid scintillation counting. Ki values were calculated using Excel-Fit (Microsoft) and are the means of two determinations.

[1] = human receptor, displacement of [3H]flumazenil (0.5 nM), means of two determinations, read-out: hKi GABAAa5

SMILES | Ki [1] [nM] | Ki [nM]
Cc1onc(-c2ccccc2)c1COc1ccc(C(=O)NCc2nc(C#N)cs2)cn1 [Example 21, N-(4-Cyano-thiazol-2-ylmethyl)-6-(5-methyl-3-phenyl-isoxazol-4-ylmethoxy)-nicotinamide] | 2.8 | –
Cc1onc(-c2ccccc2)c1COc1ccc(C(=O)NCc2ccccn2)cn1 [Example 22, 6-(5-Methyl-3-phenyl-isoxazol-4-ylmethoxy)-N-pyridin-2-ylmethyl-nicotinamide] | 4.6 | –
Cc1cc(CNC(=O)c2ccc(OCc3c(-c4ccccc4)noc3C)nc2)c(=O)[nH]n1 [Example 23, N-(6-Methyl-3-oxo-2,3-dihydro-pyridazin-4-ylmethyl)-6-(5-methyl-3-phenyl-isoxazol-4-ylmethoxy)-nicotinamide] | 6.5 | –
Cc1onc(-c2ccccc2)c1COc1ccc(C(=O)NCC(=O)OC(C)(C)C)cn1 [Example 24, {[6-(5-Methyl-3-phenyl-isoxazol-4-ylmethoxy)-pyridine-3-carbonyl]-amino}-acetic acid tert-butyl ester] | 35 | –
CCOC(=O)C(C)NC(=O)c1ccc(OCc2c(-c3ccccc3)noc2C)nc1 (stereo not shown) [Example 25, 2-{[6-(5-Methyl-3-phenyl-isoxazol-4-ylmethoxy)-pyridine-3-carbonyl]-amino}-propionic acid ethyl ester] | 20.2 | –
Cc1onc(-c2ccccc2)c1COc1ccc(C(=O)NC2CC2)cn1 [Example 27, N-Cyclopropyl-6-(5-methyl-3-phenyl-isoxazol-4-ylmethoxy)-nicotinamide] | 2.7 | –
Cc1onc(-c2ccccc2)c1COc1ccc(C(=O)NC2CCC2)cn1 [Example 28, N-Cyclobutyl-6-(5-methyl-3-phenyl-isoxazol-4-ylmethoxy)-nicotinamide] | 2.8 | –
Cc1onc(-c2ccccc2)c1COc1ccc(C(=O)NC2CCCC2)cn1 [Example 29, N-Cyclopentyl-6-(5-methyl-3-phenyl-isoxazol-4-ylmethoxy)-nicotinamide] | 3.9 | –
Cc1onc(-c2ccccc2)c1COc1ccc(C(=O)NC2CCCCC2)cn1 [Example 30, N-Cyclohexyl-6-(5-methyl-3-phenyl-isoxazol-4-ylmethoxy)-nicotinamide] | 13.1 | –
Cc1onc(-c2ccccc2)c1COc1ccc(C(=O)NC2CCOCC2)cn1 [Example 31, 6-(5-Methyl-3-phenyl-isoxazol-4-ylmethoxy)-N-(tetrahydro-pyran-4-yl)-nicotinamide] | 2.1 | –
Cc1onc(-c2ccccc2)c1COc1ccc(C(=O)NC2CCS(=O)(=O)CC2)cn1 [Example 33, N-(1,1-Dioxo-hexahydro-1,6-thiopyran-4-yl)-6-(5-methyl-3-phenyl-isoxazol-4-ylmethoxy)-nicotinamide] | 4.9 | –
CCN1CCC(NC(=O)c2ccc(OCc3c(-c4ccccc4)noc3C)nc2)CC1 [Example 35, N-(1-Ethyl-piperidin-4-yl)-6-(5-methyl-3-phenyl-isoxazol-4-ylmethoxy)-nicotinamide] | 9.4 | –
Cc1onc(-c2ccccc2)c1COc1ccc(C(=O)NC2CCN(C(C)C)CC2)cn1 [Example 36, N-(1-Isopropyl-piperidin-4-yl)-6-(5-methyl-3-phenyl-isoxazol-4-ylmethoxy)-nicotinamide] | – | 9.9
Cc1onc(-c2ccccc2)c1COc1ccc(C(=O)NC2CCN(Cc3ccccc3)CC2)cn1 [Example 37, N-(1-Benzyl-piperidin-4-yl)-6-(5-methyl-3-phenyl-isoxazol-4-ylmethoxy)-nicotinamide] | 7.3 | –
Cc1onc(-c2ccccc2)c1COc1ccc(C(=O)NC2CCCN(C(=O)OC(C)(C)C)C2)cn1 (stereo not shown) [Example 38, 3-{[6-(5-Methyl-3-phenyl-isoxazol-4-ylmethoxy)-pyridine-3-carbonyl]-amino}-piperidine-1-carboxylic acid tert-butyl ester] | 43.5 | –
CCN1CCCC(NC(=O)c2ccc(OCc3c(-c4ccccc4)noc3C)nc2)C1 (stereo not shown) [Example 39, N-(1-Ethyl-piperidin-3-yl)-6-(5-methyl-3-phenyl-isoxazol-4-ylmethoxy)-nicotinamide] | 5 | –
